Experiment: Water solubility of solid halogenated hydantoins and halogen dissolved in a saturated solution
Type: physicochemical
Conditions: Table II; for Saturated Solution, amount of halogen dissolved: saturated solution in water

| Structure (SMILES) | Saturated Solution, amount of halogen dissolved [mg/L as Cl2] | Solubility (water) [%] |
| --- | --- | --- |
| CC1(C)C(=O)N(Br)C(=O)N1Br [Dibromodimethylhydantion, 1,3-dibromo-5,5-dimethylhydantoin] | 542 |  |
| CC1(C)C(=O)N(Cl)C(=O)N1Br [Bromo-chlorodimethylhydantoin, bromochlorodimethylhydantoin] | 825 | 0.15 |
